Assay results from the supplement of paper PMC10307832.

Compound: Cn1nnc2c(C(N)=O)ncn2c1=O [Temozolomide] + Nc1ncn([C@H]2C[C@H](O)[C@@H](CO)O2)c(=O)n1 [Decitabine] (partner 2 µM)
Assay: relative viability (nuclei count vs DMSO), 5 days (fraction); higher = more cells survive
Conditions: first compound 0.2 µM
How it was run: (§1)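 Dosing by pin tool came one day after lung cancer cell lines were seeded in 1536-well plates, using either one drug or a fixed anchor-drug dose plus five library-drug doses (not always all listed) in √10 steps. After 5 days, nuclei were counted on 4× images. Relative viability is treated-well nuclei count divided by vehicle-well nuclei count, and values are medians of duplicate plates.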

Cell Line | relative viability
HCC-366 | 0.297
HCC-827 | 0.228
HOP-62 | 0.214
LC-2-ad | 0.795
LCLC-97TM1 | 0.232
LCLC-103H | 0.779
NCI-H520 | 0.54
NCI-H522 | 0.591
NCI-H661 | 0.527
NCI-H1650 | 0.45
NCI-H2009 | 0.353
NCI-H2023 | 0.279
NCI-H2342 | 0.737
SK-LU-1 | 0.683
SK-MES-1 | 0.417
SW 900 | 0.428
SW 1573 | 0.589
UMC-11 | 0.462

Same assay, conditions: first compound 0.6325 µM

Cell Line | relative viability
201T | 0.877
A549 | 0.184
A-427 | 0.538
ABC-1 | 0.878
BEN | 0.677
COR-L23 | 0.493
COR-L 105 | 0.643
ChaGo-K-1 | 0.524
EKVX | 0.295
EMC-BAC-2 | 1.05
EPLC-272H | 0.395
H3255 | 0.652
HARA | 0.607
HCC-15 | 0.633
HCC-44 | 0.991
HCC-78 | 0.679
HCC-366 | 0.386
HCC-827 | 0.357

Cell Line | relative viability
HOP-62 | 0.247
LC-2-ad | 0.766
LCLC-97TM1 | 0.245
LCLC-103H | 0.757
NCI-H520 | 0.467
NCI-H522 | 0.623
NCI-H661 | 0.598
NCI-H1648 | 0.469
NCI-H1650 | 0.422
NCI-H2009 | 0.404
NCI-H2023 | 0.227
NCI-H2342 | 0.771
SK-LU-1 | 0.671
SK-MES-1 | 0.391
SW 900 | 0.427
SW 1573 | 0.535
UMC-11 | 0.628

Same assay, conditions: first compound 2 µM

Cell Line | relative viability
201T | 0.866
A549 | 0.289
A-427 | 0.459
ABC-1 | 1.59
BEN | 0.808
COR-L23 | 0.478
COR-L 105 | 0.649
ChaGo-K-1 | 0.529
EKVX | 0.236
EMC-BAC-2 | 1.01
EPLC-272H | 0.385
H3255 | 0.812
HARA | 0.594
HCC-15 | 0.588
HCC-44 | 0.963
HCC-78 | 0.763
HCC-366 | 0.384
HCC-827 | 0.339

Cell Line | relative viability
HOP-62 | 0.226
LC-2-ad | 0.775
LCLC-97TM1 | 0.223
LCLC-103H | 0.743
NCI-H520 | 0.484
NCI-H522 | 0.747
NCI-H661 | 0.632
NCI-H1648 | 0.459
NCI-H1650 | 0.515
NCI-H2009 | 0.417
NCI-H2023 | 0.225
NCI-H2342 | 0.666
SK-LU-1 | 0.575
SK-MES-1 | 0.362
SW 900 | 0.453
SW 1573 | 0.577
UMC-11 | 0.614

Same assay, conditions: first compound 6.325 µM

Cell Line | relative viability
201T | 0.821
A549 | 0.246
A-427 | 0.443
ABC-1 | 0.94
BEN | 0.7
COR-L23 | 0.419
COR-L 105 | 0.739
ChaGo-K-1 | 0.54
EKVX | 0.34
EMC-BAC-2 | 0.993
EPLC-272H | 0.401
H3255 | 0.514
HARA | 0.523
HCC-15 | 0.617
HCC-44 | 0.951
HCC-366 | 0.304
HCC-827 | 0.34

Cell Line | relative viability
HOP-62 | 0.19
LC-2-ad | 0.874
LCLC-97TM1 | 0.216
LCLC-103H | 0.764
NCI-H520 | 0.517
NCI-H522 | 0.608
NCI-H661 | 0.495
NCI-H1648 | 0.336
NCI-H1650 | 0.457
NCI-H2009 | 0.355
NCI-H2023 | 0.211
NCI-H2342 | 0.676
SK-LU-1 | 0.458
SK-MES-1 | 0.335
SW 900 | 0.511
SW 1573 | 0.456
UMC-11 | 0.524

Same assay, conditions: first compound 20 µM

Cell Line | relative viability
201T | 0.843
A549 | 0.207
A-427 | 0.396
ABC-1 | 1.24
BEN | 0.659
COR-L23 | 0.404
COR-L 105 | 0.535
ChaGo-K-1 | 0.507
EKVX | 0.221
EMC-BAC-2 | 0.927
EPLC-272H | 0.312
H3255 | 0.187
HARA | 0.489
HCC-15 | 0.798
HCC-44 | 0.966
HCC-78 | 0.614
HCC-366 | 0.337
HCC-827 | 0.169

Cell Line | relative viability
HOP-62 | 0.188
LC-2-ad | 0.665
LCLC-97TM1 | 0.253
LCLC-103H | 0.599
NCI-H520 | 0.548
NCI-H522 | 0.59
NCI-H661 | 0.545
NCI-H1648 | 0.37
NCI-H1650 | 0.532
NCI-H2009 | 0.397
NCI-H2023 | 0.201
NCI-H2342 | 0.803
SK-LU-1 | 0.477
SK-MES-1 | 0.368
SW 900 | 0.427
SW 1573 | 0.462
UMC-11 | 0.521

Compound: C[C@@H](C(=O)N[C@@H](C1CCCCC1)C(=O)N2CCC[C@H]2C(=O)N[C@@H]3[C@@H](CC4=CC=CC=C34)OCC#CC#CCO[C@@H]5CC6=CC=CC=C6[C@@H]5NC(=O)[C@@H]7CCCN7C(=O)[C@H](C8CCCCC8)NC(=O)[C@H](C)NC)NC [AZD5582] + O=C(c1cc(Cc2n[nH]c(=O)c3ccccc23)ccc1F)N1CCN(C(=O)C2CC2)CC1 [Olaparib] (partner 8 µM)
Assay: as above
Conditions: first compound 0.001581 µM
How it was run: as §1

Cell Line | relative viability
201T | 0.916
A549 | 0.283
A-427 | 0.678
ABC-1 | 0.845
BEN | 1.09
CAL-12T | 0.558
COR-L23 | 0.307
COR-L 105 | 0.619
Calu-6 | 0.489
ChaGo-K-1 | 0.435
EBC-1 | 0.646
EKVX | 0.777
EMC-BAC-2 | 0.43
H3255 | 0.489
HARA | 0.76
HCC-15 | 0.615
HCC-44 | 0.942
HCC-78 | 0.869
HCC-366 | 0.292
HCC-827 | 0.662

Cell Line | relative viability
HOP-62 | 0.234
IA-LM | 0.708
LC-2-ad | 0.68
LCLC-97TM1 | 0.38
LCLC-103H | 0.806
NCI-H520 | 0.302
NCI-H522 | 0.554
NCI-H661 | 0.7
NCI-H1299 | 0.943
NCI-H1648 | 0.65
NCI-H1650 | 0.758
NCI-H2009 | 0.636
NCI-H2023 | 0.401
NCI-H2228 | 0.629
NCI-H2342 | 0.325
SK-LU-1 | 0.353
SK-MES-1 | 0.653
SW 900 | 0.667
SW 1573 | 0.376
UMC-11 | 0.369

Same assay, conditions: first compound 0.005 µM

Cell Line | relative viability
201T | 0.904
A549 | 0.301
A-427 | 0.716
ABC-1 | 0.724
BEN | 0.985
CAL-12T | 0.534
COR-L23 | 0.378
COR-L 105 | 0.673
ChaGo-K-1 | 0.41
EBC-1 | 0.707
EKVX | 0.894
EMC-BAC-2 | 0.446
H3255 | 0.598
HARA | 0.761
HCC-15 | 0.624
HCC-44 | 0.958
HCC-78 | 0.859
HCC-366 | 0.428
HCC-827 | 0.807
HOP-62 | 0.287

Cell Line | relative viability
IA-LM | 0.586
LC-2-ad | 0.715
LCLC-97TM1 | 0.319
LCLC-103H | 0.836
NCI-H520 | 0.274
NCI-H522 | 0.628
NCI-H661 | 0.758
NCI-H1299 | 0.965
NCI-H1648 | 0.735
NCI-H1650 | 0.668
NCI-H2009 | 0.703
NCI-H2023 | 0.381
NCI-H2228 | 0.61
NCI-H2342 | 0.361
SK-LU-1 | 0.274
SK-MES-1 | 0.515
SW 900 | 0.656
SW 1573 | 0.523
UMC-11 | 0.375

Same assay, conditions: first compound 0.01581 µM

Cell Line | relative viability
201T | 0.778
A549 | 0.292
A-427 | 0.729
ABC-1 | 0.891
BEN | 1.02
CAL-12T | 0.636
COR-L23 | 0.32
COR-L 105 | 0.729
Calu-6 | 0.629
ChaGo-K-1 | 0.421
EBC-1 | 0.639
EKVX | 0.725
EMC-BAC-2 | 0.437
EPLC-272H | 0.955
H3255 | 0.553
HARA | 0.812
HCC-15 | 0.622
HCC-44 | 0.949
HCC-78 | 0.598
HCC-366 | 0.353

Cell Line | relative viability
HCC-827 | 0.626
HOP-62 | 0.252
IA-LM | 0.649
LC-2-ad | 0.659
LCLC-97TM1 | 0.366
LCLC-103H | 0.714
NCI-H520 | 0.382
NCI-H522 | 0.641
NCI-H661 | 0.787
NCI-H1299 | 0.963
NCI-H1650 | 0.813
NCI-H2009 | 0.706
NCI-H2023 | 0.48
NCI-H2228 | 0.618
NCI-H2342 | 0.463
SK-LU-1 | 0.466
SK-MES-1 | 0.792
SW 900 | 0.79
SW 1573 | 0.628
UMC-11 | 0.399

Same assay, conditions: first compound 0.05 µM

Cell Line | relative viability
201T | 0.989
A549 | 0.36
A-427 | 0.59
ABC-1 | 0.976
BEN | 1.17
CAL-12T | 0.373
COR-L23 | 0.329
COR-L 105 | 0.732
Calu-6 | 0.258
ChaGo-K-1 | 0.442
EBC-1 | 0.571
EKVX | 0.854
EMC-BAC-2 | 0.446
EPLC-272H | 0.0712
H3255 | 0.481
HARA | 0.841
HCC-15 | 0.598
HCC-44 | 0.903
HCC-78 | 0.791
HCC-366 | 0.44
HCC-827 | 0.68

Cell Line | relative viability
HOP-62 | 0.232
IA-LM | 0.582
LC-2-ad | 0.805
LCLC-97TM1 | 0.272
LCLC-103H | 0.862
NCI-H520 | 0.365
NCI-H522 | 0.674
NCI-H661 | 0.737
NCI-H1299 | 0.931
NCI-H1648 | 0.672
NCI-H1650 | 0.834
NCI-H2009 | 0.751
NCI-H2023 | 0.412
NCI-H2228 | 0.333
NCI-H2342 | 0.438
SK-LU-1 | 0.142
SK-MES-1 | 0.605
SW 900 | 0.495
SW 1573 | 0.684
UMC-11 | 0.381
